{"source": "patent US20240269320A1", "about": "“EXTENDED RELEASE DRUG DELIVERY SYSTEM FOR OCULAR DRUGS AND METHODS OF USE” (Eyedea Bio, LLC, priority 2021, published 2024)", "key": {"[1]": {"assay": "In vivo kinetics after intravitreal injection of bolus implant in rabbit eyes (LC/MS, retina)", "conditions": "for residual drug in recovered bolus/implants: bolus formulation of native peptide"}, "[2]": {"assay": "In vitro to in vivo correlation of fluocinolone acetonide release, rabbit eyes", "conditions": "formulations in multiphasic colloidal suspension", "description": "Properties of Kd and binding capacity were calculated for each FA-complex particulate, in dispersal medium (FIG. 15). […] FIG. 16B illustrates other formulations, wherein varying the ratio of drug-complex particulates altered the kinetics of release, as the proportion of complexation agent (KET) with higher avidity (Kd) was increased across the formulations, for a given payload of FA.\nThe depicted curves reflect in vitro release profiles, while the individual colored points, circled, represent in vivo release data from rabbit eyes."}, "carboxyesterase": {"system": "carboxyesterase", "assay": "Cleavage of prodrug ester bond by carboxyesterase in vitro", "assay_type": "in vitro ADME", "conditions": "37° C., carboxyesterase 0.1 μg/mL", "description": "One specific example of EY005-prodrug includes EY005-stearyl (depicted in FIG. 27A), wherein EY005 is linked via ester bond to stearyl alcohol, one member from the group of long-chain saturated fatty alcohols. On cleavage of the ester bond, the prodrug EY005-stearyl releases the EY005 MTT. […] Upon addition of EY005-stearyl prodrug to phosphate-buffered saline solution at 37° C. without esterase, the ester bond of the EY005-stearyl prodrug cleaves more slowly (˜36 hours) by hydrolysis (FIG. 28C).\nEY005-stearyl was incubated at 37° C. in vitro with carboxyesterase (0.1 μg/mL), to simulate the ocular physiologic environment and the type of esterase that is readily abundant within the vitreous. […] Upon addition of EY005-stearyl prodrug to phosphate-buffered saline solution at 37° C. without esterase, the ester bond of the EY005-stearyl prodrug cleaves more slowly by hydrolysis (FIG. 28C).\nIn some examples of prodrugs, cleavage and release of the free API can be assessed in an in vitro release assay, wherein the prodrug is incubated in a solution containing carboxyesterase (or other natural or synthetic esterase), isolated vitreous recovered from animal (e.g., pig, rabbit, etc.), or isolated vitreous recovered from human donor, at […], […], or other temperatures. […]"}, "[3]": {"conditions": "flowable bolus implant, multiple time points"}, "[4]": {"assay": "Sunitinib malate bio-erodible tube implant, drug levels in retina tissue of rabbits", "assay_type": "in vivo, rabbit", "source_text": "In another example, formulations of the hydrophilic small molecule sunitinib malate in the multiphasic colloidal suspension were developed (FIGS. 20-22). […] Complexation of sunitinib to selected complexation agents was visually confirmed by admixture and pulldown of sunitinib-complex particulates, which was confirmed since by the yellow-orange color of particulates (sunitinib has orange coloration) (FIG. 21).\nIn another example, formulations of the hydrophilic small molecule sunitinib malate in the multiphasic colloidal suspension were developed. […] Complexation of sunitinib to selected complexation agents was visually confirmed by admixture and pulldown of sunitinib-complex particulates, which was confirmed since by the yellow-orange color of particulates (sunitinib has orange coloration). Formulations of sunitinib with two-phase release kinetics in a bio-erodible tube formulation of sunitinib multiphasic colloidal suspension were designed and manufactured. […] Alteration of the ratio of sunitinib-complex particulates reduced the amount of drug released during initial burst and lowered the steady state release."}}, "note": "“Also recorded” adds a separate entry of the source. Read-outs that look alike come from different tables or passages of the source. Non-standard residues stand in square brackets, D forms with d. Residues, ends and D or L forms follow the SMILES beside them. *: point of attachment. Dmt = Cc1cc(O)cc(C)c1C[C@H](N)C(=O)O; X1 = CCCCCCCCCCCCCCCCCCO*", "data": [{"compound": "Cc1cc(O)cc(C)c1C[C@H](NC(=O)[C@H](N)CCCNC(=N)N)C(=O)N[C@@H](CCCCN)C(=O)N[C@@H](Cc1ccccc1)C(=O)O", "note": "[EY005, H-d-Arg-DMT-Lys-Phe] (H-[dR][Dmt]KF-OH; C-terminus assumed)", "values": [{"measurement": "time beyond which no detectable tissue levels", "setting": "[1]; bolus formulation of native API administered into the vitreous", "result": "≤ 21", "unit": "days"}, {"measurement": "residual drug in recovered bolus/implants", "setting": "[1]; rabbits, listed as EY005 native peptide", "result": "Recovered implants contained no EY005 native peptide"}, {"measurement": "residual drug in recovered bolus/implants", "setting": "[1]; rabbits, listed as native API", "result": "no residual drug in the recovered bolus"}, {"measurement": "tissue concentrations", "setting": "[1]; by week 3.5, identical bolus formulation, rabbits", "result": "nearly undetectable"}]}, {"compound": "CC1(C)O[C@@H]2C[C@H]3[C@@H]4C[C@H](F)C5=CC(=O)C=C[C@]5(C)[C@@]4(F)[C@@H](O)C[C@]3(C)[C@]2(C(=O)CO)O1", "note": "[FA, fluocinolone acetonide]", "values": [{"measurement": "correlation between drug release in vitro and in vivo (retina tissue levels)", "setting": "[2]", "result": "strong correlation"}, {"measurement": "correlation between drug release in vitro and in vivo (retina tissue levels)", "setting": "[2]; listed as fluocinolone acetonide", "result": "good in vitro to in vivo correlation"}]}, {"compound": "CCCCCCCCCCCCCCCCCCOC(=O)[C@H](Cc1ccccc1)NC(=O)[C@H](CCCCN)NC(=O)[C@H](Cc1c(C)cc(O)cc1C)NC(=O)[C@H](N)CCCNC(=N)N", "note": "[EY005-stearyl, H-d-Arg-DMT-Lys-Phe(O)-stearyl] (H-[dR][Dmt]KF-X1)", "values": [{"measurement": "cleavage of the prodrug ester bond, releasing EY005 (HPLC)", "setting": "carboxyesterase", "result": "rapid cleavage of the prodrug ester bond"}]}, {"compound": "CNC(=O)c1ccccc1Sc1ccc2c(/C=C/c3ccccn3)n[nH]c2c1", "note": "[axitinib]", "values": [{"measurement": "drug levels in retina tissue", "setting": "[3]", "result": "detectable drug levels in retina tissue"}]}, {"compound": "CCN(CC)CCNC(=O)c1c(C)[nH]c(/C=C2\\C(=O)Nc3ccc(F)cc32)c1C", "note": "[sunitinib malate]", "values": [{"measurement": "release kinetics (pharmacokinetics) and tissue levels of tube formulation", "setting": "[4]; bio-erodible tube formulation", "result": "produced desired tissue levels and durability of release; also recorded: two-phase release with high initial burst, followed by steady-state release"}, {"measurement": "drug levels in retina tissue", "setting": "[4]; low and high dose implants, multiple time points", "result": "detectable drug levels in retina tissue"}]}]}
